Key:
IRAK4 [1] = target: T1, IRAK4 (Homo sapiens, UniProt Q9NWZ3); test: IRAK4 Degradation Assay (Karpas299, HTRF/TR-FRET); type: cell-based; conditions: Karpas-299 cells; for Dmax: maximum percentage of degradation
T1 construct: endogenous in cells; host or cells: Karpas299
T1 sequence (Q9NWZ3 1-460): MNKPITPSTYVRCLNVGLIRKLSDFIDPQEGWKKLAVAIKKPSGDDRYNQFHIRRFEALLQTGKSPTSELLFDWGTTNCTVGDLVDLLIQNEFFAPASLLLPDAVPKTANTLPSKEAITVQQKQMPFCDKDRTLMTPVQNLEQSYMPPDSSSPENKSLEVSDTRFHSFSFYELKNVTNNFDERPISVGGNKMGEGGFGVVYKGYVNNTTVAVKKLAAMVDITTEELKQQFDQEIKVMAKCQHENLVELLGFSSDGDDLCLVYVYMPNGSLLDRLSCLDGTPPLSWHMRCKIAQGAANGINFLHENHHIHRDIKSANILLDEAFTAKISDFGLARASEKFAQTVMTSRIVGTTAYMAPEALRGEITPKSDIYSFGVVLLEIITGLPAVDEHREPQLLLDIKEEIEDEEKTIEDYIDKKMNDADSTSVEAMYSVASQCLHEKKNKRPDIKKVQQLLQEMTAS
Procedure, shortened: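 Karpas299 cells at 0.2 million per well were exposed to serially diluted compounds for 24 h or 5 h, then lysed. IRAK4 remaining in lysates was quantified by HTRF (665/620 nm) after overnight antibody incubation at room temperature. Percent degradation was fitted to a four-parameter curve to give IC50 (DC50).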

IRAK4 [2] = target: T1, IRAK4; test: IRAK4 Degradation Assay with Human Serum (Karpas299, HTRF/TR-FRET); type: cell-based; conditions: Karpas-299 in human serum, 24 hrs treatment; for DC50: read-out: IRAK4 degradtion with human serum assay DC50; for Dmax: read-out: IRAK4 degradtion with human serum assay Dmax (%)
Procedure, shortened: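 Karpas299 cells in human AB serum (0.2 million/well) treated with serial compound dilutions for 24 h. After lysis, IRAK4 quantified by HTRF (overnight antibody incubation at room temperature, 665/620 nm read). Degradation percentage fitted to four-parameter curve to give DC50.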

[3] = 24 h treatment, read-out: IRAK4 in Karpas-299 (24 h) Dmax (%)
[4] = 24 h treatment, read-out: IRAK4 in Karpas-299 (24 h) DC50
[5] = 5 h treatment, read-out: IRAK4 in Karpas-299 (5 h) Dmax (%)
[6] = 5 h treatment, read-out: IRAK4 in Karpas-299 (5 h) DC50

Compound | Dmax (IRAK4 [1]; [3]) [%] | DC50 (IRAK4 [1]; [4]) [nM] | DC50 (IRAK4 [2]) [nM] | Dmax (IRAK4 [2]) [%] | Dmax (IRAK4 [1]; [5]) [%] | DC50 (IRAK4 [1]; [6]) [nM]
COc1cc(N2CC[C@@H](C(=O)N3CCN([C@H]4CC[C@H](n5cc6cc(NC(=O)c7ccc8cc(C#N)cnn78)c(C(C)(C)O)cc6n5)CC4)CC3)C2)cc(F)c1N1CCC(=O)NC1=O [Example 212, 3-cyano-N-(2-((1R,4r)-4-(4-((R)-1-(4-(2,4-dioxotetrahydropyrimidin-1(2H)-yl)-3-fluoro-5-methoxyphenyl)pyrrolidine-3-carbonyl)piperazin-1-yl)cyclohexyl)-6-(2-hydroxypropan-2-yl)-2H-indazol-5-yl)pyrrolo[1,2-b]pyridazine-7-carboxamide] | 94 | 3.6 | 40 | 95 |  | 
CC(C)(O)c1cc2nn([C@H]3CC[C@H](N4CCN(C(=O)C5CN(c6cc(F)c([C@H]7CCC(=O)NC7=O)c(F)c6)C5)CC4)CC3)cc2cc1NC(=O)c1ccc2cc(C(F)(F)F)cnn12 [Example 207] | 97 | 1.9 | 191 | 97 |  | 
C[C@@H]1CN(C(=O)C2CN(c3cc(F)c(N4CCC(=O)NC4=O)c(F)c3)C2)CCN1[C@H]1CC[C@H](n2cc3cc(NC(=O)c4ccc5cc(C#N)cnn45)c(C(C)(C)O)cc3n2)CC1 [Example 303, 3-cyano-N-(2-((1R,4r)-4-((R)-4-(1-(4-(2,4-dioxotetrahydropyrimidin-1(2H)-yl)-3,5-difluorophenyl)azetidine-3-carbonyl)-2-methylpiperazin-1-yl)cyclohexyl)-6-(2-hydroxypropan-2-yl)-2H-indazol-5-yl)pyrrolo[1,2-b]pyridazine-7-carboxamide] | 101 | 0.4 | 16 | 101 |  | 
CC(C)(O)c1cc2nn([C@H]3CC[C@H](N4CCN(C(=O)C5CN(c6cc(F)c([C@H]7CCC(=O)NC7=O)c(F)c6)C5)CC4=O)CC3)cc2cc1NC(=O)c1ccc2cc(C#N)cnn12 [Example 199, 3-cyano-N-(2-((1r,4r)-4-(4-(1-(4-((R)-2,6-dioxopiperidin-3-yl)-3,5-difluorophenyl)azetidine-3-carbonyl)-2-oxopiperazin-1-yl)cyclohexyl)-6-(2-hydroxypropan-2-yl)-2H-indazol-5-yl)pyrrolo[1,2-b]pyridazine-7-carboxamide] | 99 | 0.4 | 22 | 95 |  | 
COC[C@H]1CN(C2CCN(c3cc(F)c([C@H]4CCC(=O)NC4=O)c(F)c3)CC2)CCN1[C@H]1CC[C@H](n2cc3cc(NC(=O)c4ccc5cc(C#N)cnn45)c(C(C)(C)O)cc3n2)CC1 [Example 324, 3-cyano-N-(2-((1R,4r)-4-((R)-4-(1-(4-((R)-2,6-dioxopiperidin-3-yl)-3,5-difluorophenyl)piperidin-4-yl)-2-(methoxymethyl)piperazin-1-yl)cyclohexyl)-6-(2-hydroxypropan-2-yl)-2H-indazol-5-yl)pyrrolo[1,2-b]pyridazine-7-carboxamide] | 95 | 1 | 23 | 99 |  | 

Now from value to molecule:

Dmax (IRAK4 [1]; [3]) [%] | DC50 (IRAK4 [1]; [4]) [nM] | DC50 (IRAK4 [2]) [nM] | Dmax (IRAK4 [2]) [%] | Dmax (IRAK4 [1]; [5]) [%] | DC50 (IRAK4 [1]; [6]) [nM] | Compound
97 | 1.4 | 8.6 | 98 |  |  | COC[C@H]1CN(C2CCN(c3ccc(C4CCC(=O)NC4=O)nc3C)CC2)CCN1[C@H]1CC[C@H](n2cc3cc(NC(=O)c4ccc5cc(C#N)cnn45)c(C(C)(C)O)cc3n2)CC1 (stereo partly drawn) [Example 415, 3-cyano-N-(2-((1R,4r)-4-((2R)-4-(1-(6-(2,6-dioxopiperidin-3-yl)-2-methylpyridin-3-yl)piperidin-4-yl)-2-(methoxymethyl)piperazin-1-yl)cyclohexyl)-6-(2-hydroxypropan-2-yl)-2H-indazol-5-yl)pyrrolo[1,2-b]pyridazine-7-carboxamide]
97 | 1.6 | 4 | 97 |  |  | Cc1nc(C2CCC(=O)NC2=O)ccc1N1CCC(N2CCN(C34CC(n5cc6cc(NC(=O)c7ccc8cc(C#N)cnn78)c(C(C)(C)O)cc6n5)(C3)C4)CC2)CC1 (centres unmarked) [Example 419, 3-cyano-N-(2-(3-(4-(1-(6-(2,6-dioxopiperidin-3-yl)-2-methylpyridin-3-yl)piperidin-4-yl)piperazin-1-yl)bicyclo[1.1.1]pentan-1-yl)-6-(2-hydroxypropan-2-yl)-2H-indazol-5-yl)pyrrolo[1,2-b]pyridazine-7-carboxamide]
98 | 0.8 | 19 | 101 |  |  | COC[C@@H]1CN(C2CCN(c3cc(F)c([C@H]4CCC(=O)NC4=O)c(F)c3)CC2)CCN1[C@H]1CC[C@H](n2cc3cc(NC(=O)c4ccc5cc(C#N)cnn45)c(C(C)(C)O)cc3n2)CC1 [Example 328, 3-cyano-N-(2-((1S,4r)-4-((S)-4-(1-(4-((R)-2,6-dioxopiperidin-3-yl)-3,5-difluorophenyl)piperidin-4-yl)-2-(methoxymethyl)piperazin-1-yl)cyclohexyl)-6-(2-hydroxypropan-2-yl)-2H-indazol-5-yl)pyrrolo[1,2-b]pyridazine-7-carboxamide]
102 | 1.5 | 14 | 98 |  |  | CC(C)(O)c1cc2nn(C3CCN([C@@H]4CCN(C5CN(c6cc(F)c([C@H]7CCC(=O)NC7=O)c(F)c6)C5)CC4(F)F)CC3)cc2cc1NC(=O)c1ccc2cc(C#N)cnn12 [Example 342, 3-cyano-N-(2-((R)-1′-(1-(4-((R)-2,6-dioxopiperidin-3-yl)-3,5-difluorophenyl)azetidin-3-yl)-3′,3′-difluoro-[1,4′-bipiperidin]-4-yl)-6-(2-hydroxypropan-2-yl)-2H-indazol-5-yl)pyrrolo[1,2-b]pyridazine-7-carboxamide]
97 | 1.4 | 5.5 | 99 | 93 | 1.6 | CC(C)(O)c1cc2nn(C3CCN(C4CCN(C(=O)C5CN(c6cc(F)c([C@H]7CCC(=O)NC7=O)c(F)c6)C5)CC4)CC3)cc2cc1NC(=O)c1ccc2cc(C#N)cnn12 [Example 346, (R)-3-cyano-N-(2-(1′-(1-(4-(2,6-dioxopiperidin-3-yl)-3,5-difluorophenyl)azetidine-3-carbonyl)-[1,4′-bipiperidin]-4-yl)-6-(2-hydroxypropan-2-yl)-2H-indazol-5-yl)pyrrolo[1,2-b]pyridazine-7-carboxamide]
97 | 2.4 | 7.7 | 98 | 94 | 3.9 | CC(C)(O)c1cc2nn(C34CC(N5CCN(CCC6CCN(c7cc(F)c([C@H]8CCC(=O)NC8=O)c(F)c7)CC6)CC5)(C3)C4)cc2cc1NC(=O)c1ccc2cc(C#N)cnn12 [Example 349, (R)-3-cyano-N-(2-(3-(4-(2-(1-(4-(2,6-dioxopiperidin-3-yl)-3,5-difluorophenyl)piperidin-4-yl)ethyl)piperazin-1-yl)bicyclo[1.1.1]pentan-1-yl)-6-(2-hydroxypropan-2-yl)-2H-indazol-5-yl)pyrrolo[1,2-b]pyridazine-7-carboxamide]
94 | 0.4 | 6.6 | 95 |  |  | Cn1c(=O)n(C2CCC(=O)NC2=O)c2cccc(CCCN3CCN([C@H]4CC[C@H](n5cc6cc(NC(=O)c7ccc8cc(C#N)cnn78)c(C(C)(C)O)cc6n5)CC4)CC3)c21 (some centres unmarked) [Example 348, 3-cyano-N-(2-((1r,4r)-4-(4-(3-(1-(2,6-dioxopiperidin-3-yl)-3-methyl-2-oxo-2,3-dihydro-1H-benzo[d]imidazol-4-yl)propyl)piperazin-1-yl)cyclohexyl)-6-(2-hydroxypropan-2-yl)-2H-indazol-5-yl)pyrrolo[1,2-b]pyridazine-7-carboxamide]
98 | 1.1 | 3 | 96 |  |  | COC[C@@H]1CN(C2CCN(c3ccc(C4CCC(=O)NC4=O)nc3C)CC2)CCN1[C@H]1CC[C@H](n2cc3cc(NC(=O)c4ccc5cc(C#N)cnn45)c(C(C)(C)O)cc3n2)CC1 (stereo partly drawn) [Example 423, 3-cyano-N-(2-((1S,4r)-4-((2S)-4-(1-(6-(2,6-dioxopiperidin-3-yl)-2-methylpyridin-3-yl)piperidin-4-yl)-2-(methoxymethyl)piperazin-1-yl)cyclohexyl)-6-(2-hydroxypropan-2-yl)-2H-indazol-5-yl)pyrrolo[1,2-b]pyridazine-7-carboxamide]

Source: patent publication US20250195513A1, “DEGRADATION OF IRAK4 BY CONJUGATION OF IRAK4 INHIBITORS WITH E3 LIGASE LIGAND AND METHODS OF USE” (BeiGene, Ltd., priority 2022, published 2025)
